“Also recorded” adds a separate entry of the source. Like-named read-outs stand apart in the source and are kept apart here.
Key:
E. coli NDM-1/XL-1B = experiment: Accumulation assay in bacteria (LC-MS); assay type: cell-based; conditions: 50 μM compound, 10 min at 37° C.; tetracycline positive, clindamycin negative control
Protocol: Briefly, the overnight culture of E. coli NDM-1/XL-1B was inoculated into fresh Luria Bertani (LB) broth (1:100 v/v) and incubated at 37° C. with shaking to an optical density (OD600) of 0.55-0.60. The bacteria were pelleted by centrifugation and washed with 1× phosphate-buffered saline (PBS) before being re-suspended in PBS (28 times concentrated). The colony-forming units (CFUs) were determined by a calibration curve. Re-suspended cells were aliquoted into 1.5 mL Eppendorf tubes and recovered at 37° C. for 5 min. The compounds and controls were added with a final concentration of 50 μM. The mixtures were incubated at 37° C. for 10 min and the OD600 values were recorded to note the growth changes. To collect the cell pellets, 800 μL bacteria-compound mixtures were layered onto 700 μL silicone oil (9:1 v/v, AR20/Sigma High Temperature, pre-cooled at −80° C.) and bacteria were pelleted through the silicone oil by centrifugation. Cell pellets were re-suspended in 200 μL H2O and lysed using three freeze-thaw cycles of 3 min in liquid nitrogen followed by 3 min in a 65° C. water bath. Supernatants were collected after centrifuging and the cell debris was re-suspended in 100 μL methanol. The mixtures from cell debris were then centrifuged, and the methanol supernatants were combined with the supernatants from the last step before LC-MS analysis.
Two NL of supernatant was injected into a Thermo TSQ Quantis MS coupled with a Thermo Vanish UHPLC for analysis. The Phenomenex Luna C18 column (1.0 mm×50 mm, 1.7 μm) was used for resolving tested compounds with the column temperature being kept constant at 40° C. […] The compound concentrations in the samples were calculated based on their corresponding standard curves. […]
This could be partially due to the low accumulation of compounds into the periplasm and/or due to modest in vitro inhibition potency (Ki). To discern between the possibilities, the accumulation of inhibitors into bacteria was quantified using mass spectrometry. Compounds were pre-incubated with E. coli inoculum before cells were washed, lysed, and analyzed via mass spectrometry. […]

A. baumanii = experiment: MIC of PBP-3 screening hits against A. baumanii; assay type: cell-based; conditions: inhibitor alone
Protocol: (§1) Similarly to KPC-2 and NDM-1, PBP-3 was screened against the β-lactamase-focused library and several hits were identified from qDOS38_2 and qDOS38_4 (Table 7). Since PBP-3 is not a β-lactamase enzyme, the inhibition assay cannot be used to determine the biochemical potency of inhibitor against PBP-3. Instead, in vivo potency was determined directly against E. coli and A. baumanii. Since all bacteria express PBP-3 naturally, other modifications to wild-type bacteria were not necessary.
(§2) Unlike β-lactamase inhibitor MIC determinations, which measure the synergy between inhibitor and antibiotic, PBP-3 inhibitor MIC determination only measures a single dimension concentration gradient of the inhibitor.

E. coli = experiment: MIC of PBP-3 screening hits against E. coli; assay type: cell-based; conditions: for MIC: Escherichia coli, inhibitor alone, read-out: E. coli minimum inhibitory concentration (MIC)
Protocol: as §1, §2

[1] = Solubility observed in assay media; assay type: physicochemical
NDM-1 = NDM-1 (Klebsiella pneumoniae, UniProt C7C422); assay type: biochemical
Sequence of NDM-1 (C7C422 whole entry, looked up, species assumed): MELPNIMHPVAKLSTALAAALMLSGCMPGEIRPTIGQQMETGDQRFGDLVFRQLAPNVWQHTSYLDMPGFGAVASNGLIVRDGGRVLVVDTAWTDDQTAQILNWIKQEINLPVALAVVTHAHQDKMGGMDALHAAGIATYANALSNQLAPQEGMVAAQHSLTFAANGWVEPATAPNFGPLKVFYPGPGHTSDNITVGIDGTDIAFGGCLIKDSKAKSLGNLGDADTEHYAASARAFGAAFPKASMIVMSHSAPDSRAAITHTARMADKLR

E. coli expressing NDM-1 = assay type: cell-based; conditions: Ins = insoluble
KPC-2 [2] = target: T1, KPC-2 (Klebsiella pneumoniae, UniProt Q9F663); experiment: DNA-encoded library affinity selection against KPC-2; assay type: binding; conditions: qDOS38_1 library, on-DNA
T1 sequence (Q9F663 whole entry, looked up, species assumed): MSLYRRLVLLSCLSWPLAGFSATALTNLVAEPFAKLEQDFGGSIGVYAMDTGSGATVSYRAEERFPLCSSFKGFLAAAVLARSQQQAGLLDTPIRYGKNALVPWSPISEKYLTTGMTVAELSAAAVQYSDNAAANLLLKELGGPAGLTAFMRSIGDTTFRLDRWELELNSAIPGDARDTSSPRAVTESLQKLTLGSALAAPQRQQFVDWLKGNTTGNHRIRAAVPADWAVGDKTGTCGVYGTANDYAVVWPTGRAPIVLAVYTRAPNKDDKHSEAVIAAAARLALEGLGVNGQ

KPC-2 [3] = target: T1, KPC-2; experiment: KPC-2 enzyme inhibition (Ki); assay type: biochemical
Text: Several hits were identified from the qDOS38_1 library against the KPC-2 enzyme. All compounds were synthesized without linker C1a. Among the hit compounds, CDD-2312 had the highest enrichment score of 5.9 but a lower count number of 115 compared to other libraries screened at the same time.

In the case of `CNCc1cccc(NCc2ccc(-c3ccc(C(=O)O)c(O)c3)o2)c1` [CDD-2376, 2-hydroxy-4-(5-(((3-((methylamino)methyl)phenyl)amino)methyl)furan-2-yl)benzoic acid], the accumulation in bacteria (E. coli NDM-1/XL-1B) is reported as “lowest amount of accumulation; also recorded: lowest of all three compounds tested and comparable to that of the negative control”.
In the case of `Nc1cccc(NCc2ccc(-c3cncc(C(=O)O)c3)cc2)c1` [CDD-2396, 5-(4-(((3-aminophenyl)amino)methyl)phenyl)nicotinic acid], the “effect against A. baumanii” value (A. baumanii) is reported as “Neither of the compounds had any significant effect” and the MIC (E. coli) is reported as 256 µg/mL.
In the case of `NC(Cc1ccc(O)c(O)c1)C(=O)NCCc1ccccc1` (centres unmarked) [CDD-2507, 2-amino-3-(3,4-dihydroxyphenyl)-N-phenethylpropanamide], the “effect against A. baumanii” value (A. baumanii) is reported as “Neither of the compounds had any significant effect”, the “growth of bacteria below the MIC” value (E. coli; 16 μg/mL, E. coli) is reported as “slower growth of bacteria” and the MIC (E. coli) is reported as 128 µg/mL.
For `NCc1cccc(NCc2cccc(-c3ccc(C(=O)O)c(O)c3)n2)c1` [CDD-2653, 4-(6-(((3-(aminomethyl)phenyl)amino)methyl)pyridin-2-yl)-2-hydroxybenzoic acid], the accumulation in bacteria (E. coli NDM-1/XL-1B) was “much higher”.
In the case of `Cc1cc(CNc2cccc(CN)c2)cc(-c2ccc(C(=O)O)c(O)c2)c1` [CDD-2997, 3′-(((3-(aminomethyl)phenyl)amino)methyl)-3-hydroxy-5′-methyl-[1,1′-biphenyl]-4-carboxylic acid], the “solubility in aqueous solution” value ([1]; MIC medium, above 64 μg/mL) is reported as “low solubility in aqueous solution”, the solubility in buffer ([1]; at the accumulation assay concentration (50 μM)) is reported as “low solubility in buffer” and the Ki (NDM-1) is reported as 530 ± 370 nM. The “Imipenem MIC (μg/mL)” value (E. coli expressing NDM-1; [inhibitor] 64 μg/mL) was “Ins” and the “Imipenem MIC (μg/mL)” value (E. coli expressing NDM-1; [inhibitor] 128 μg/mL) was “Ins”.
In the case of `NCc1cccc(NCc2cccc(-c3ccc(C(=O)O)c(O)c3)c2)c1` [CDD-2616, 3′-(((3-(aminomethyl)phenyl)amino)methyl)-3-hydroxy-[1,1′-biphenyl]-4-carboxylic acid], the accumulation in bacteria (E. coli NDM-1/XL-1B) is reported as “comparable to that of the positive control”, the Ki (NDM-1) is reported as 900 ± 440 nM and the “NDM-1 Ki (μM)” value (NDM-1) is reported as “sub-micromolar inhibition potency”.
Molecule `COc1cc(-c2cnc(NCC(=O)O)nc2)cc(C=O)c1OCC(=O)N(C)C` [CDD-2312, (5-(4-(2-(dimethylamino)-2-oxoethoxy)-3-formyl-5-methoxyphenyl)pyrimidin-2-yl)glycine] has an enrichment score (KPC-2 [2]) of 5.9 and a Ki (KPC-2 [3]) of 657000 ± 123000 nM.

Source: patent US20250325542A1, “INHIBITORS OF ANTIMOCROBIAL RESISTANCE AND METHOS USING SAME” (Baylor College of Medicine, priority 2022, published 2025)
